Results taken from patent publication US6476203B1, “Safe pharmaceutical composition for treating and preventing infertility and increasing immune function” (priority 2002, dated 2002).
Marks after values point to notes of the source that are not given here.

What was measured:
[1] = test system: testosterone; assay: Effect of ICN on testosterone (radioimmune method); format: in vivo, Wistar male rats
Description: Thirty normal Wistar male rats weighing 280+20 g were selected.
The rats were killed 30th days after the administration. The testosterone level of the rats in various groups was determined by using radioimmune method. The index of testis was determined. Control group was pathological model group. In control group, rats treated by cyclophosphamide (CYE). Rats treated by ICN+CYE in treatment group.

[2] = test system: male mice; assay: Effect of ICN on sexual behavior (ejaculation experiments); format: in vivo
Text: Selected 50 mice including male: 28-32g and female: 24-26g. The age of mice is over 8 weeks. The mice were divided normal group, suspend-loaded group, large dosage of ICN group, small dosage of ICN group and positive control group. The index of major sexual behaviors of male mice is ejaculation experiments operated on 15th day.

[3] = test system: bone marrow stem cells (CFU-S); assay: Effects of ICN on hemopoietic system (spleen colony assay); format: in vivo, mice
Text: With increased cells in bone-marrow (BMC), endogenous colonies in spleen and higher ^3H-TdR uptake in marrow and spleen. The level of serum colony stimulating factor (CSF) increased after injection.

[4] = test system: peritoneal macrophage; assay: Effect of ICN on phagocytosis of peritoneal macrophage; format: in vivo; details: mice, ICN 5.5 mg/kg i.p. daily for 5 days, cyclophosphamide 4.5 mg/kg; macrophages with phagocytized chick red blood cells per 100 macrophages
Description: The control mice were injected with same volume of normal saline. These injections were repeated daily for 5 days, both treated and control group were injected intraperitoneally with cyclosphosphamide. The dosage of cyclophosphamide is 4.5 mg/kg. The same experimental procedure for example 3, 4 and 5 in testing mice were used. Added 0.02 ml of 5% washed chick red blood cell suspension to 0.5 ml of the peritoneal exudates. Shook gently to mix and incubate at 37° C. for 5 minutes. Dipped two cover slips, closed to each other, in the above mixture and incubated for 30 minutes for the migration of the macrophages along the cover slips, fixed and stained with Sharma stain. Examined microscopically for: Phagocytic rate—number of macrophages with phagocytized chick red blood cells per 100 macrophages counted. Method of animal model is regular.

[5] = test system: white blood cells; assay: Effect of ICN on white blood cells in rats treated by cyclophosphamide; format: in vivo
Text: Action of ICN and cyclophosphamide on white blood cells was investigated by means of white blood cells assay. […] Method of testing in animal is standard. The dosage of ICN and cyclophosphamide is the same as in above examples. Time of treatment is 10 days.

[6] = test system: lymphocytes; assay: Effect of ICN on lymphoblastoid transformation (3H-TdR liquid scintillation); format: in vivo, mice; details: 3H-TdR uptake, PHA-stimulated lymphocytes
Description: (1) Experimental procedure of animal is the same as in Example 2.
(2) Lemphoblastoid transformation test:
I. Reagents and conditions for cell culture
a. Culture media—RPMI 1640, medium 199 minimal essential medium (Eagle).
b. Buffer—Hepes buffer, the final concentration at 37° C. was 25 mM, to maintain the pH of the medium at 7.31.
c. Serum—generally 15-205 fetal bovine serum was incorporated, for lymphocytes from mice, 5% was used.
d. Gaseous phase—5% CO2 in air.
e. Cell concentration—generally 1-2 c 10^6/ml.
f. Stimulants—20μl/ml for phytohemagglutinin containing polysaccharide (PHA-M) or 10 μl/ml for polysaccharide-free purified phytohemagglutinin (PHA-P).
II. Measured by liquid scintillation
a. The conditions of cell culture are same as above. ^3H-TdR was added after 48 hours of incubation at a final concentration of 1 μCi/ml and continued the incubation for 24 hours.
b. Washed the cells twice with cold normal saline and the erythrocytes were lysed. The intact lymphocytes were again washed once with cold saline. Spun down the lymphocytes and added 2 ml of 10% trichloroacetic acid to precipitate the protein. Washed twice with normal saline. Added 2 ml of ethanol:ether (1:1) to wash once. 0.2 ml of formic acid was then added for digestion till the precipitate was dissolved.
c. Added 4 ml of scintillation fluid to 0.1 ml of the final sample and counted in a liquid scintillation counter.

[7] = test system: interleukin-2 (rIL-2); assay: Effect of ICN on interleukin-2 (rIL-2); format: in vivo; details: treatment group
Text: The methods of determination rIL-2 were regular.

[8] = test system: human blood lymphocytes; assay: Effects of ICN on immune function of human blood lymphocytes (3H-TdR incorporation); format: cell-based; details: for CPM (3H-TdR incorporation into lymphocytes): ICN added to culture medium
Description: 2 ml of venous blood, heparinized was obtained from each of the participants. […] MEM was supplemented with 0.125 ml of heat-inactivated fetal calf serum, 100 units of Penicillin and 0.1 mg of streptomycin per ml of medium. Culture medium was divided into treated (ICN) and control group. ICN was added to the culture medium of treatment group. […] The ^3H-thymidine (^3H-TdR) was added into all the cultures (2 μci/ml) for last 12 hours of culture. The cells were harvested on 0.45 μm filters, washed with phosphate buffer (ph 7.4) and bleached with H2O2. The filters were then dried and the incorporation of ^3H-TdR into lymphocytes cell was measured by scintillation counter.

[9] = test system: Lipoperoxides; assay: Effect on peroxidation (hepatic lipoperoxide content); format: in vivo
Description: The animal experiments were performed as previously described. Hepatic lipoperoxide content was determined. In the present study, the effect of SCS on lipoperoxides was examined. It is known that the pathogenesis of CCl4—induced hepatic damage involved reactive oxidant species increasing from the metabolism. The liver injure caused by CCl4 is due to the formation of a reactive toxic metabolite by the hepatic cytochrome P-450 system.

[10] = mice treated by cyclophosphamide

Question: With Icariin [ICN] as the substance, how does the Testosterone level ([1]; rats treated by ICN+CYE (cyclophosphamide), killed 30th day after administration, X ± SD) read?
Answer: 154.6 ± 19.8 ng/dL

Question: What about the “level of testosterone (in words)” value ([1]; summary of Table 1) of the same substance?
Answer: increase the level of testosterone significantly

Question: And the Ejaculation proportion ([2]; male mice, 15th day)?
Answer: 93%

Question: And the “treatment of infertility (in words)” value ([2]; summary of Table 4)?
Answer: marked efficiency

Question: And the “protection of stem cells of bone marrow from killing effect of cyclophosphamide” value ([3]; mice)?
Answer: protected

Question: And the “3H-TdR uptake in marrow and spleen” value [3, 10]?
Answer: higher

Question: And the “cells in bone-marrow (BMC)” value [3, 10]?
Answer: increased

Question: What about the “endogenous colonies in spleen” value [3, 10] of the same substance?
Answer: increased

Question: What about the “recovery rate of hemopoieses” value [3, 10] of the same substance?
Answer: markedly improve

Question: And the “Mean (CFU-S ± SD)” value ([3]; mice treated by cyclophosphamide, spleen colony assay)?
Answer: 27.2 ± 3.0

Question: And the “Phagocytic (rate ± SD)” value [4]?
Answer: 28.5 ± 3.0

Question: And the “protection of white blood cells from killing effect of cyclophosphamide” value ([5]; rats)?
Answer: protected

Question: What about the “White blood cells × 10^3/cm^3 ± SD” value ([5]; rats treated by cyclophosphamide, 10 days treatment) of the same substance?
Answer: 12.8 ± 2.0* 10^3/cm^3

Question: And the “CPM ± SD (lymphoblastoid transformation)” value [6]?
Answer: 1150 ± 120 CPM

Question: And the “IL-2 (U/ml) ± SD” value [7]?
Answer: 79.0 ± 8.5 U/ml

Question: And the “CPM (3H-TdR incorporation into lymphocytes)” value ([8]; Old (n = 20))?
Answer: 2500 ± 350 CPM

Question: What about the “CPM (3H-TdR incorporation into lymphocytes)” value ([8]; Young (n = 20)) of the same substance?
Answer: 8155 ± 986 CPM

Question: What about the “human immune function (in words)” value ([8]; summary of Table 5-10) of the same substance?
Answer: increase human immune function significantly

Question: And the Lipoperoxides ([9]; 1 h)?
Answer: 0.75 ± 0.08 mmol MDA/g liver protein

Question: And the Lipoperoxides ([9]; 3 h)?
Answer: 0.70 ± 0.07 mmol MDA/g liver protein

Question: And the Lipoperoxides ([9]; 6 h)?
Answer: 0.80 ± 0.9 mmol MDA/g liver protein

Question: What about the Lipoperoxides ([9]; 12 h) of the same substance?
Answer: 0.70 ± 0.9 mmol MDA/g liver protein

Question: And the Lipoperoxides ([9]; 24 h)?
Answer: 1.0 ± 0.12 mmol MDA/g liver protein
